From publication PMC2697495 (The Journal of pharmacy and pharmacology, 2008)
Marks after values point to notes of the source that are not given here.

Assays:
[1] = system: pooled human liver microsomes (pHLMs); test: 5-HT glucuronidation by pooled human liver microsomes; format: biochemical; conditions: pHLM, 4 mM 5-HT, n=3
[2] = system: rat liver microsomes; conditions: 4 mM saccharolactone, ref Brunelle & Verbeeck 1993; cited from earlier work
[3] = system: HLMs; conditions: 5 mM saccharolactone, ref Alkharfy & Frye 2001; cited from earlier work
[4] = system: pooled human liver microsomes (pHLMs); test: Codeine glucuronidation by pHLMs; format: biochemical; conditions: for Codeine glucuronidation, % of the control activity (measured at 0 mM): pHLM, 1 mM codeine, n=3
[5] = Effect of saccharolactone on pH of 50 mM potassium phosphate incubation buffer; format: physicochemical
[6] = system: pooled human liver microsomes (pHLMs); test: Estradiol-3 glucuronidation by pHLMs; format: biochemical; conditions: for Estradiol-3 glucuronidation, % of the control activity (measured at 0 mM): pHLM, 100 μM estradiol, n=3
[7] = system: pooled human liver microsomes (pHLMs); test: e-4-hydroxy-tamoxifen glucuronidation by pHLMs; format: biochemical; conditions: 20 mM saccharolactone, pH-adjusted to 7.5

In the case of O=C(O)[C@@H](O)[C@H]1OC(=O)[C@H](O)[C@H]1O [saccharolactone, D-saccharic acid 1,4-lactone], the “5-HT glucuronidation, % of the control activity (measured at 0 mM)” value (from here on “5-HT glucuronidation, %”) ([1]; 1 mM saccharolactone (pH-adjusted)) is reported as 104±8%, the “5-HT glucuronidation, %” value ([1]; 2 mM saccharolactone (pH-adjusted)) is reported as 93±5% and the “5-HT glucuronidation, %” value ([1]; 5 mM saccharolactone (pH-adjusted)) is reported as 86±4 ^a %. For the same compound, the “5-HT glucuronidation, %” value ([1]; 10 mM saccharolactone (pH-adjusted)) was 87±4 ^a %, the “5-HT glucuronidation, %” value ([1]; 20 mM saccharolactone (pH-adjusted)) was 63±5 ^a % and the “change in diflunisal phenol glucuronide formation” value [2] was “no change”. For the same compound, the “increase of diflunisal acyl glucuronide formation (Vmax)” value [2] was 2 fold, the “decrease of acetaminophen glucuronidation” value [3] was 45% and the “Codeine glucuronidation, % of the control activity (measured at 0 mM)” value (from here on “Codeine glucuronidation, %”) ([4]; 1 mM saccharolactone) was 98±7%. The “Codeine glucuronidation, %” value ([4]; 2 mM saccharolactone) was 97±4%, the “Codeine glucuronidation, %” value ([4]; 5 mM saccharolactone) was 91±2 ^a % and the “Codeine glucuronidation, %” value ([4]; 10 mM saccharolactone) was 95±5%. The “Codeine glucuronidation, %” value ([4]; 20 mM saccharolactone) was 88±8%, the “inhibition of codeine glucuronidation” value ([4]; pHLMs, 5 mM saccharolactone, p<0.05) was 9% and the “pH of incubation buffer after adding saccharolactone” value ([5]; 20 mM saccharolactone in 50 mM potassium phosphate, initially pH 7.5) was 6.8. For the same compound, the “effect on pH of incubation buffer” value ([5]; saccharolactone up to 5 mM in 50 mM potassium phosphate pH 7.5) was “minimal effect on pH”, the “Estradiol-3 glucuronidation, % of the control activity (measured at 0 mM)” value (“Estradiol-3 glucuronidation, %” for short) ([6]; 1 mM saccharolactone) was 68±5% and the “Estradiol-3 glucuronidation, %” value ([6]; 2 mM saccharolactone) was 84±1%. The “Estradiol-3 glucuronidation, %” value ([6]; 5 mM saccharolactone) was 76±9 ^a %, the “Estradiol-3 glucuronidation, %” value ([6]; 10 mM saccharolactone) was 67±5 ^a % and the “Estradiol-3 glucuronidation, %” value ([6]; 20 mM saccharolactone) was 67±7 ^a %. For the same compound, the “decrease in estradiol-3 glucuronidation activity” value ([6]; pHLMs, 20 mM saccharolactone, p<0.05) was 33% and the “decrease in e-4-hydroxy-tamoxifen glucuronidation activity” value [7] was 17%.
